The values below come from patent publication US4683242A, “Transdermal treatment for pain and inflammation with 2-amino-3-aroylbenzeneacetic acids, salts and esters” (A. H. Robins Company, Incorporated, priority 1985, dated 1987).

Counter-ions that a name gives are not always drawn.

For data set [1], the system named is Carrageenan-Induced Rat-Paw Edema. Put plainly: Carrageenan Induced Rat-Paw Edema, dermal application (antiinflammatory). In kind it is in vivo. The note with it: for Measurement of Edema at 3 hr.: 4 hr pretreatment; for Activity applied dermally compared with orally for a given dose: dermal vs oral, Formula B cream (pH=3.5) for Example 74. How it is done: On the day prior to the test, an area of about 1"×1" of the lower back just above the tail of each of the rats was shaved and depilated with the commercially available hair removal preparation--Nair®. The rats were returned to the vivarium for feed and water.
The following day each rat was weighed and the volume of the left hind limb recorded. The rats were randomized into groups. Creams were applied in the following manner: 0.2 ml of the cream vehicle (control--no active agent) or formulation containing active ingredient was rubbed thoroughly onto the shaved depilated area of the rat's back for 10-15 seconds. The rats were immediately placed into plexiglass observation cylinders to restrict movement so as to prohibit accidental oral ingestion of the cream. The rats were then placed in a quiet room for 4 hr. Four hours after dosing, 0.1 ml of 1% carrageenan was injected into the left hind limb of each rat. The rats were returned to their observation cylinders and placed in the quiet room for an additional 3 hr time, after which the volume of the left hind limb was determined. The degree of edema was determined by subtracting limb volume at 0 time from the volume determined 3 hr after carrageenan injection. Two tail Dunnett's t-tests were used to compare the edema of the treated groups with the appropriate controls (Dunnet, C. W. (1955); J. AM. STAT. ASSOC. 50: 1096-1121).
Several compounds of Formula I were mixed with the creams as prepared above so as to obtain cream containing 3.2 weight percent of each compound based on the weight of free acid or the ester. Rats in groups of 6 (randomized) were each treated with 0.2 ml of the cream containing the compound using the foregoing Carrageenan Induced Rat-Paw Edema test. The control rats were treated with cream having no test compound.
In addition, one preferred compound was tested further using the foregoing Carrageenan-Induced Rat-Paw Edema test at various concentrations in the cream of Formula B (pH=3.5).
A general note: In the carrageenan paw model, swelling and tenderness develop within hours.

Data set [2] has as its system Acetylcholine Induced Abdominal Constriction. Put plainly: Acetylcholine Induced Abdominal Constriction Test in Mice, dermal application (analgetic). In kind it is in vivo, mouse. The conditions noted are these: Formula A cream pH = 7.0, 4 hr pretreatment. The method, then:
Active agent was incorporated into the cream described under Formual A above (pH=7.0) at various concentrations calculated on a free acid basis.
Mice were prepared for the test by shaving an area measuring 3/4"×3/4" on their backs behind their heads and then depilating with Nair®, a cosmetic hair remover. The mice were given free access to feed and water prior to the experiment. On the following day the mice were weighed and fitted with a cardboard collar (13/4"×13/4" with a 1/2" hole in the center) around the neck to prevent ingestion of applied compounds. The mice were randomized into groups of 10 using random tables generated by the IBM scrambler. A table of random permutations of blocks of order 3 was used to select the control and treated groups. The randomized mice were fed and placed in individual observation cages 1 hr prior to application of 50 microliters of the cream (by rubbing onto the skin for approximately 10 seconds).
The mice acting as controls were treated with cream having no test compound in it. Four hours after the application of the cream to the depilated area, acetylcholine bromide was injected intraperitoneally at 6 mg/kg (10 ml/kg in saline) with a plastic syringe with a 5/8 inch, 25-gauge disposable needle. Each mouse was immediately placed under an inverted 1 liter beaker and observed for 3 minutes for the presence of abdominal constriction. If no abdominal constriction was observed during this period, the response was considered blocked. ED50 and 95% confidence limits were determined by computer using a probit analysis method. Ten mice were used at each concentration, including controls.
The following results in Table 5 were obtained using the foregoing method using the cream of Formula A (pH=7.0) as described above having mixed therein the compound of Example 74 in comparison to controls wherein no test compound was present.

The conditions of data set [3]: quotation from Remington's, 16th Ed., page 1523; cited from earlier work.
[4] abbreviates: Table 3, Formula A cream, pH = 7.0, 0.2 ml, 3.2% by weight (free acid basis or ester), dermal.
Setting [5] is: Table 3, Formula A cream, pH = 7.0, 0.2 ml, 3.2% by weight, dermal, p = <0.05.
Where [6] appears, read: Table 4, first series, Formula B pH 3.5, 0.032 % (W/W), 0.37 mg/kg dermal.
Where [7] appears, read: Table 4, second series, Formula B pH 3.5, 0.01 % (W/W), 0.10 mg/kg dermal.
The mark [8] stands for this setting: Table 4, second series, Formula B pH 3.5, 0.032 % (W/W), 0.32 mg/kg dermal.
Where [9] appears, read: Table 4, second series, Formula B pH 3.5, 0.10 % (W/W), 0.94 mg/kg dermal.

`CCOC(=O)Cc1cccc(C(=O)c2ccccc2)c1N` [Example 5, 2-Amino-3-benzoylbenzeneacetic acid, ethyl ester]: the “Measurement of Edema at 3 hr.” value in data set [1] (setting [4]) was 0.27 ± 0.18 ml ± S.D. The “% Change (edema vs control)” value in data set [1] (setting [5]) is reported as -71%.
In the same order, the values of `CSc1ccc(C(=O)c2cc(F)cc(CC(=O)O)c2N)cc1` [Example 19, 2-Amino-3-[(4-methylthio)benzoyl]-5-fluorobenzeneacetic acid, sodium salt] are 0.55 ± 0.14 ml ± S.D and -41%.
With `Cc1ccc(C(=O)c2cc(Cl)cc(CC(=O)O)c2N)cc1` [Example 55, 2-Amino-3-(4-methylbenzoyl)-5-chlorobenzeneacetic acid, sodium salt, hydrate [4:3]], the “Measurement of Edema at 3 hr.” value in data set [1] (setting [4]) is 0.33 ± 0.20 ml ± S.D. Besides, the “% Change (edema vs control)” value in data set [1] (setting [5]) is on record as -64%.
For `Nc1c(CC(=O)O)cccc1C(=O)c1ccc(I)cc1` [Example 57, 2-Amino-3-(4-iodobenzoyl)benzeneacetic acid, sodium salt, hydrate [4:1]], in that order: 0.40 ± 0.14 ml ± S.D and -57%.
As for `CCOC(=O)Cc1cccc(C(=O)c2ccc(Br)cc2)c1N` [Example 69, 2-Amino-3-(4-bromobenzoyl)benzeneacetic acid, ethyl ester], the “Measurement of Edema at 3 hr.” value in data set [1] (setting [4]) is recorded as 0.50 ± 0.20 ml ± S.D. In addition, in data set [1] (setting [5]), the “% Change (edema vs control)” value is recorded as -46%.
Turning to `Nc1c(CC(=O)O)cccc1C(=O)c1ccc(Br)cc1` [Example 74, 2-Amino-3-(4-bromobenzoyl)benzeneacetic acid, sodium salt, sesquihydrate], the “Measurement of Edema at 3 hr.” value in data set [1] (Table 3, Formula B cream, pH = 3.5, 0.2 ml, 3.2% by weight (free acid basis), dermal) is on record as 0.48 ± 0.17 ml ± S.D; in data set [1] (Table 3, Formula B cream, pH = 3.5, 0.2 ml, 3.2% by weight (free acid basis), dermal, sodium salt, sesquihydrate) it was 0.38 ± 0.18 ml ± S.D. Also, the “3 Hr. Edema” value is given as 0.73 ± 0.33 ml ± S.D in data set [1] (setting [6]); 0.42 ± 0.21 ml ± S.D in data set [1] (Table 4, first series, Formula B pH 3.5, 0.10 % (W/W), 1.1 mg/kg dermal, p < 0.05); 0.37 ± 0.19 ml ± S.D in data set [1] (Table 4, first series, Formula B pH 3.5, 0.32 % (W/W), 3.7 mg/kg dermal, p < 0.05); 0.42 ± 0.10 ml ± S.D in data set [1] (Table 4, first series, Formula B pH 3.5, 1.0 % (W/W), 11.9 mg/kg dermal, p < 0.05); 0.38 ± 0.18 ml ± S.D in data set [1] (Table 4, first series, Formula B pH 3.5, 3.16 % (W/W), 36.5 mg/kg dermal, p < 0.05); 0.88 ± 0.33 ml ± S.D in data set [1] (setting [7]). The “3 Hr. Edema” value in data set [1] (setting [8]) is reported as 1.05 ± 0.22 ml ± S.D; in data set [1] (setting [9]), 0.55 ± 0.20 ml ± S.D; in data set [1] (Table 4, second series, Formula B pH 3.5, 0.32 % (W/W), 3.0 mg/kg dermal, p < 0.05), 0.42 ± 0.15 ml ± S.D; in data set [1] (Table 4, second series, Formula B pH 3.5, 1.0 % (W/W), 10.3 mg/kg dermal, p < 0.05), 0.37 ± 0.05 ml ± S.D; in data set [1] (Table 4, second series, Formula B pH 3.5, 3.16 % (W/W), 31.5 mg/kg dermal, p < 0.05), 0.48 ± 0.17 ml ± S.D. In addition, the “% Change (edema vs control)” value in data set [1] (setting [6]) is -26%; in data set [1] (Table 4, first series, Formula B pH 3.5, 0.10 % (W/W), 1.1 mg/kg dermal), -57%; in data set [1] (Table 4, first series, Formula B pH 3.5, 0.32 % (W/W), 3.7 mg/kg dermal), -62%; in data set [1] (Table 4, first series, Formula B pH 3.5, 1.0 % (W/W), 11.9 mg/kg dermal), -57%; in data set [1] (Table 4, first series, Formula B pH 3.5, 3.16 % (W/W), 36.5 mg/kg dermal), -61%; in data set [1] (setting [7]), “+3%”. The “% Change (edema vs control)” value in data set [1] (setting [8]) is “+22%”; in data set [1] (setting [9]), -36%; in data set [1] (Table 4, second series, Formula B pH 3.5, 0.32 % (W/W), 3.0 mg/kg dermal), -52%; in data set [1] (Table 4, second series, Formula B pH 3.5, 1.0 % (W/W), 10.3 mg/kg dermal), -57%; in data set [1] (Table 4, second series, Formula B pH 3.5, 3.16 % (W/W), 31.5 mg/kg dermal), -44%. For the same molecule, the “Activity against edema compared with indomethacin applied dermally or orally” value in data set [1] (comparative study, Example 74 applied dermally to rats) is given as “more active against the Edema than indomethacin applied dermally or orally”. Besides, the “Activity applied dermally compared with orally for a given dose” value in data set [1] (comparative study) is reported as “about as active applied dermally as it was orally for a given dose”. Moreover, the “% Block” value in data set [2] (0.01 wt. % in 50 μl cream) is on record as 0%; in data set [2] (0.032 wt. % in 50 μl cream), 20%; in data set [2] (0.10 wt. % in 50 μl cream), 60%; in data set [2] (0.32 wt. % in 50 μl cream), 80%; in data set [2] (1.0 wt. % in 50 μl cream) it was 80%; in data set [2] (3.16 wt. % in 50 μl cream), 90%. Further, the “ED50 as % Concentration of Agent in Cream (95% Confidence Limits)” value in data set [2] (probit analysis, 95% confidence limits (0.06-0.29)) was determined as 0.128%.
As to `COc1ccc2c(c1)c(CC(=O)O)c(C)n2C(=O)c1ccc(Cl)cc1` [indomethacin, reference compound], the “Activity applied dermally compared with orally for a given dose” value in data set [1] (comparative study) is recorded as “markedly less active when applied dermally than when given orally for a given dose”.
In the case of `O=C([O-])c1ccccc1O.[Na+]` [sodium salicylate], the “Skin permeation compared with salicylic acid” value in data set [3] is “permeates poorly compared with salicylic acid”.
